Test results as given in patent US20160287558A1, “ORAL PHARMACEUTICAL FORM FOR PREVENTING VASCULAR DISEASES, TABLET AS PHARMACEUTICAL FORM AND GELATIN CAPSULE AS PHARMACEUTICAL FORM” (HYPERMARCAS S.A., priority 2013, published 2016).

What was measured:
[1] = Description: The dissolution curves represent the expression of the release mechanism of active principles within the pharmaceutical form. Thus, it is possible to modulate the release to protect the active pharmaceutical principle, besides of improving the solubilization conditions. Excipients are used to optimize the behavior of the active pharmaceutical principle.
[2] = ALLHAT study; cited from earlier work
carbonic anhydrase = details: cited from earlier work

| SMILES | solubility in water [1] | efficacy and prevention of cardiovascular complications compared with other drugs [2] | inhibition of carbonic anhydrase (carbonic anhydrase) |
| --- | --- | --- | --- |
| CCCCc1nc(Cl)c(CO)n1Cc1ccc(-c2ccccc2-c2nn[nH]n2)cc1 [losartan] | freely soluble |  |  |
| NS(=O)(=O)c1cc2c(cc1Cl)NCNS2(=O)=O [hydrochlorothiazide] |  | as effective as other drugs and further prevents more cardiovascular complications than other drugs | very weak inhibitors |
